# Earlier results as cited in patent US6777002B1, “Process for microencapsulation of water soluble substances” (Debio Recherche Pharmaceutique S.A., priority 1999, dated 2004).
# Settings: in water at 20-25° C.
row,Structure (SMILES),solubility in water
1,ClCCl [dichloromethane],1.32 % (by weight)
2,CCOC(C)=O [ethyl acetate],8.70 % (by weight)
